Measurements taken from patent US20050267067A1, “Radical reaction inhibitors, method for inhibition of radical reactions, and use thereof” (priority 2002, published 2005).

Legend:
[1] = test system: calf serum albumin (BSA); test: Modification of BSA by lipid peroxides (protein carbonyl, OLAARPs); format: biochemical; conditions: for OLAARPs Formation: (%) / Protein carbonyl Formation: (%): BSA, versus no saccharide; for Formed OLAARPs / Formed Protein carbonyl: 37° C., 24 hours
Procedure: In this experiment, saccharide solutions were prepared to give an equal total saccharide molar concentration in each solution.
As a negative control, PBS was used.
To five milliliters of either of the above saccharide solutions for testing or the negative control was added 10 mg of calf serum albumin (BSA) or L-lysine, followed by dissolving. To each of the resulting solutions was added 25 μg of 2,4-decadienal or malondialdehyde (MDA) as a lipid peroxide, followed by reaction at 37° C. for 24 hours. After completion of the reaction, protein carbonyl and reaction products of oxidized lipids/aminoacids (OLAARPs) formed as aldehyde adducts were quantified on the calorimetric method. […] The formation levels of protein carbonyl and OLAARPs were determined based on the absorbances obtained in this experiment, in terms of the molar absorbance coefficient for each molecule as disclosed in Biochim. Biophys.
To each of the resulting mixtures was added 600 μl of 30% trichloroacetic acid, and the mixture was allowed to stand at 0° C. for one hour and centrifuged at 10,000 rpm for 15 min to obtain a precipitate, followed by washing the resulting precipitate four times with two milliliters of ethanol/ethylacetate (1:1), respectively, adding 1.5 ml of 6M-guanidine hydrochloride/20 mM-NaPi/TFA (pH 2.3) to the resultant, allowing the mixture to stand at 37° C. for 30 min, and measuring the absorbance of the resulting mixture at a wavelength of 580 nm, ε=35,000 M^−1 cm^−1.

[2] = Preservation of powdery vitamin E preparations at 60° C., GC; format: physicochemical; conditions: for Amount of vitamin E: per one gram of vitamin E preparation
Procedure: Vitamin E (α-tocopherol) commercialized by Wako Pure Chemical Industries Ltd., Tokyo, Japan, was dissolved in ethanol (a special grade reagent, commercialized by Katayama Chemical Industries Co., Ltd., Osaka, Japan) to make into an ethanol solution with a vitamin E content of 10%. Ten grams of the powdery anhydrous cyclotetrasaccharide, prepared in Example 3, were placed in a glass mortar and then a small amount of […] was added to the cyclotetrasaccharide. Using a glass rod, the mixture was repeatedly mixed with additional ethanol or acetic acid until the mixture could not keep its powdery form. Thus, a vitamin E preparation was obtained. As controls, vitamin E preparations were prepared by using “ISOELITE P™”, a powdery branched cyclodextrin commercialized by Ensuiko Sugar Refining Co., Ltd., Tokyo, Japan, a powdery anhydrous crystalline α,α-trehalose prepared according to the method disclosed in Japanese Patent Kokai No. 213,283/95, “PINEFIBER™”, a powdery dextrin product commercialized by Matsutani Chemical Industries Co., Ltd., Hyogo, Japan, or a soluble starch commercialized by Katayama Chemical Industries Co., Ltd., Osaka, Japan, except for using cyclotetrasaccharide by the same procedure. Successively, each powdery vitamin E preparation was dried under a reduced pressure by keeping the preparation at ambient temperature for five hours in a desiccators containing (P2O5) to evaporate ethanol. About 0.5 gram each of the five powdery vitamin E preparations containing any one of those saccharides was weighted and placed in 20 ml-glass vials and sealed. […] The amount of vitamin E in each sample was determined by: adding 10 ml of ethanol to each of the vials containing the test samples; extracting vitamin E by shaking the resulting suspensions; centrifuging the suspensions at 10,000 rpm for 10 minutes; and measuring the amount of vitamin E in the resulting supernatants by gas-chromatography (GC). GC was carried out using “GC-14A”, a GL apparatus produced by Shimadzu Corporation, Kyoto, Japan, installed with “DB-1”, a column (internal diameter: 0.25 mm, length: 30 m) commercialized by Agilent Technologies, USA (former name; J & W Scientific, USA). The amount of vitamin E (mg) per one gram of a vitamin E preparation and the residual vitamin E (%) was calculated and expressed with a relative value, when the amount of vitamin E in each test sample just after its preparation was regarded as 100%, as shown in Table 11.

[3] = Preservation of vitamin D3 tablets at 60° C., absorbance at 265 nm; format: physicochemical; conditions: for Amount of vitamin D3: per one gram of vitamin D3 tablet
Procedure: Vitamin D3 (cholecalciferol), as vitamin D, commercialized by Wako Pure Chemical Industries Ltd., Tokyo, Japan, was dissolved in ethanol with the highest purity, commercialized by Katayama Chemical Industries Co., Ltd., Osaka, Japan, to make into an ethanol solution with a vitamin D3 content of 3%. To eight grams of the powdery anhydrous cyclotetrasaccharide, prepared in Example 3, was added 1.5 ml of the above ethanol solution and the resulting mixture was pulverized similarly as in Example 20, dried under a reduced pressure, and made into a powdery vitamin D3 preparation containing cyclotetrasaccharide. […] About 0.3 gram each of the powdery vitamin D3 preparations containing any one of the above saccharides was made into a vitamin D3 tablet by pressurizing at 200 kg/cm^2 for two minutes using a tablet machine. Vitamin D3 tablets thus obtained were weighted and each one tablet of which was placed in a 20 ml-glass vial and sealed to obtain five kinds of vitamin D3 tablets containing a saccharide. The vials were preserved under a normal pressure at 60° C. and the amount of vitamin D3 remaining in the vials was examined just after preparation, after preserving for two hours, one day, two days, and seven days, respectively. The amount of vitamin D3 in each tablet was determined by: adding 10 ml of 70% aqueous ethanol solution to each vial containing any of the test samples; crushing the tablets using a glass rod before extracting vitamin D3; filling up the total volume to 50 ml with 70% aqueous ethanol solution; centrifuging the resulting solutions at 10,000 rpm for 10 minutes; filtrating the resulting supernatants; and measuring the absorbance at a wavelength of 265 nm for the resulting filtrates. The amount of vitamin D3 was calculated based on the absorbance coefficient (E1%) at a wavelength of 265 nm, which was regarded as 475. The amount of vitamin D3 (mg) per one gram of each of the vitamin D3 tablets and the residual vitamin D3 (%) was calculated based on the amount of vitamin D3 in the test samples just after preparation, which was regarded as 100%. The results are in Table

[4] = 2,4-decadienal, listed as cyclotetrasaccharide
[5] = MDA, listed as cyclotetrasaccharide
[6] = added lipid peroxide 2,4-decadienal
[7] = added lipid peroxide malondialdehyde (MDA)
[8] = just after its preparation (regarded as 100%)

| Residual vitamin E (%) ([2]; 0 days (regarded as 100%)) | Residual vitamin E (%) ([2]; 1 day at 60° C.) | Residual vitamin E (%) ([2]; 3 days at 60° C.) | Residual vitamin E (%) ([2]; 7 days at 60° C.) | Residual vitamin E (%) ([2]; 14 days at 60° C.) | Amount of vitamin E ([2]; 0 days at 60° C.) [mg] | Amount of vitamin E ([2]; 1 day at 60° C.) [mg] | Amount of vitamin E ([2]; 3 days at 60° C.) [mg] | Amount of vitamin E ([2]; 7 days at 60° C.) [mg] | Amount of vitamin E ([2]; 14 days at 60° C.) [mg] | Residual D3 percentage (%) [3, 8] | Residual D3 percentage (%) ([3]; one day at 60° C.) | Compound | OLAARPs Formation: (%) ([1]; 2,4-decadienal) | Protein carbonyl Formation: (%) ([1]; 2,4-decadienal) | OLAARPs Formation: (%) ([1]; MDA) | Protein carbonyl Formation: (%) ([1]; MDA) | Formed OLAARPs [1, 6] [μmol/g-BSA] | Formed Protein carbonyl [1, 6] [μmol/g-BSA] | Formed OLAARPs [1, 7] [μmol/g-BSA] | Formed Protein carbonyl [1, 7] [μmol/g-BSA] | further results |
| --- | --- | --- | --- | --- | --- | --- | --- | --- | --- | --- | --- | --- | --- | --- | --- | --- | --- | --- | --- | --- | --- |
| (100) % | (98) % | (95) % | (90) % | (61) % | 75.9 | 74.4 | 72.0 | 68.5 | 46.3 | (100) % | (66) % | OCC1OC2OCC3O[C@H](O[C@H]4C(O)C(CO)OC(OCC5O[C@H](O[C@@H](C1O)C2O)C(O)C(O)[C@@H]5O)C4O)C(O)C(O)[C@@H]3O (stereo partly drawn) [Cyclotetrasaccharide, cyclo{→6}-α-D-glucopyranosyl-(1→3)-α-D-glucopyranosyl-(1→6)-α-D-glucopyranosyl-(1→3)-α-D-glucopyranosyl-(1→}] | (69) % | (45) % | (80) % | (45) % | 2.92 | 6.34 | 4.68 | 1.09 | OLAARPs Formation: (%) [1, 4]: about 69%; Protein carbonyl Formation: (%) [1, 4]: about 45%; OLAARPs Formation: (%) [1, 5]: about 80%; Protein carbonyl Formation: (%) [1, 5]: about 45%; Amount of vitamin D3 ([3]; just after its preparation): 5.27 mg; Amount of vitamin D3 ([3]; one day at 60° C.): 3.49 mg; Amount of vitamin D3 ([3]; seven days at 60° C.): 2.65 mg; Amount of vitamin D3 ([3]; two days at 60° C.): 2.91 mg; Amount of vitamin D3 ([3]; two hours at 60° C.): 4.57 mg; Residual D3 percentage (%) ([3]; seven days at 60° C.): (50) %; Residual D3 percentage (%) ([3]; seven days at 60° C., listed as cyclotetrasaccharide): 90%; Residual D3 percentage (%) ([3]; two days at 60° C.): (55) %; Residual D3 percentage (%) ([3]; two hours at 60° C.): (87) % |
| (100) % | (99) % | (85) % | (73) % | (41) % | 36.7 | 36.2 | 31.0 | 26.6 | 15.1 | (100) % | (24) % | OC[C@H]1O[C@H](O[C@H]2O[C@H](CO)[C@@H](O)[C@H](O)[C@H]2O)[C@H](O)[C@@H](O)[C@@H]1O [α, α-Trehalose, α, α-trehalose, reference compound] | (63) % | (58) % | (56) % | (60) % | 2.67 | 8.26 | 3.24 | 1.45 | Amount of vitamin D3 ([3]; just after its preparation): 4.67 mg; Amount of vitamin D3 ([3]; one day at 60° C.): 1.11 mg; Amount of vitamin D3 ([3]; seven days at 60° C.): 1.05 mg; Amount of vitamin D3 ([3]; two days at 60° C.): 1.02 mg; Amount of vitamin D3 ([3]; two hours at 60° C.): 1.58 mg; Residual D3 percentage (%) ([3]; seven days at 60° C.): (22) %; Residual D3 percentage (%) ([3]; two days at 60° C.): (22) %; Residual D3 percentage (%) ([3]; two hours at 60° C.): (34) % |
